Columns and labels:
[1] = molecular target: BMP-2-inducible protein kinase (Homo sapiens, UniProt Q9NSY1); assay: Binding affinity to BIKE (unknown origin) assessed as dissociation constant
[2] = molecular target: Cyclin-dependent kinase 2 (Homo sapiens, UniProt P24941); assay: Inhibition of CDK2 (unknown origin)
Zika virus = assay: Antiviral activity against ZIKV infected in human SNB-19 cells; format: functional, organism-based
[3] = molecular target: AP2-associated protein kinase 1 (Homo sapiens, UniProt Q2M2I8); assay: Binding affinity to AAK1 (unknown origin) assessed as dissociation constant
AP2-associated protein kinase 1, sequence (Q2M2I8 whole entry): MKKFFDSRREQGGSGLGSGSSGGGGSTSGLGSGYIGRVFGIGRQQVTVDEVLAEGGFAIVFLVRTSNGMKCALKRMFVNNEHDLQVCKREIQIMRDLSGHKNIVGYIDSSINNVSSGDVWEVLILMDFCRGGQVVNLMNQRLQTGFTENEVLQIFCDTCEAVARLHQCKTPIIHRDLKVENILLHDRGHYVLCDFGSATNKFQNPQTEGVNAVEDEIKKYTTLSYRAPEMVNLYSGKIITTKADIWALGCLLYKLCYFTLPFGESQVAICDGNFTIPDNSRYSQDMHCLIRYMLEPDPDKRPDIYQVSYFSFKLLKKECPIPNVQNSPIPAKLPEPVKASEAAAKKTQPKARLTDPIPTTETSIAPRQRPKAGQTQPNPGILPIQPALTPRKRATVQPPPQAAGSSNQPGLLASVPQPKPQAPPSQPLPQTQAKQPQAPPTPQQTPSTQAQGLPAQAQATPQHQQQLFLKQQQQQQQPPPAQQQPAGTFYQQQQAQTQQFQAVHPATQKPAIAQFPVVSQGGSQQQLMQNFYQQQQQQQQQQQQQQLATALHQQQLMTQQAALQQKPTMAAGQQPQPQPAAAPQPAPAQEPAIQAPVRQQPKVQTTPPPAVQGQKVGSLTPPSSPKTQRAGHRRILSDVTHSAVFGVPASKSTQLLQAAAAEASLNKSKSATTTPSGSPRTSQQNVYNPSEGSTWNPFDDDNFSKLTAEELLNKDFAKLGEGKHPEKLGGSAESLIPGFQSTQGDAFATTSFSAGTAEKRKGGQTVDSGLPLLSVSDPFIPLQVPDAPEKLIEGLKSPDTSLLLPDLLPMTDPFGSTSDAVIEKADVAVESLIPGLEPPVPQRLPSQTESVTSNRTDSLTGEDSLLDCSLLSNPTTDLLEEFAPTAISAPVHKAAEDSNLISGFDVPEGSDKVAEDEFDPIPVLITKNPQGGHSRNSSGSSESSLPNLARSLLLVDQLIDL

[4] = molecular target: Cyclin-G-associated kinase (Homo sapiens, UniProt O14976); assay: Binding affinity to GAK (unknown origin) assessed as dissociation constant
Cyclin-G-associated kinase, sequence (O14976 whole entry): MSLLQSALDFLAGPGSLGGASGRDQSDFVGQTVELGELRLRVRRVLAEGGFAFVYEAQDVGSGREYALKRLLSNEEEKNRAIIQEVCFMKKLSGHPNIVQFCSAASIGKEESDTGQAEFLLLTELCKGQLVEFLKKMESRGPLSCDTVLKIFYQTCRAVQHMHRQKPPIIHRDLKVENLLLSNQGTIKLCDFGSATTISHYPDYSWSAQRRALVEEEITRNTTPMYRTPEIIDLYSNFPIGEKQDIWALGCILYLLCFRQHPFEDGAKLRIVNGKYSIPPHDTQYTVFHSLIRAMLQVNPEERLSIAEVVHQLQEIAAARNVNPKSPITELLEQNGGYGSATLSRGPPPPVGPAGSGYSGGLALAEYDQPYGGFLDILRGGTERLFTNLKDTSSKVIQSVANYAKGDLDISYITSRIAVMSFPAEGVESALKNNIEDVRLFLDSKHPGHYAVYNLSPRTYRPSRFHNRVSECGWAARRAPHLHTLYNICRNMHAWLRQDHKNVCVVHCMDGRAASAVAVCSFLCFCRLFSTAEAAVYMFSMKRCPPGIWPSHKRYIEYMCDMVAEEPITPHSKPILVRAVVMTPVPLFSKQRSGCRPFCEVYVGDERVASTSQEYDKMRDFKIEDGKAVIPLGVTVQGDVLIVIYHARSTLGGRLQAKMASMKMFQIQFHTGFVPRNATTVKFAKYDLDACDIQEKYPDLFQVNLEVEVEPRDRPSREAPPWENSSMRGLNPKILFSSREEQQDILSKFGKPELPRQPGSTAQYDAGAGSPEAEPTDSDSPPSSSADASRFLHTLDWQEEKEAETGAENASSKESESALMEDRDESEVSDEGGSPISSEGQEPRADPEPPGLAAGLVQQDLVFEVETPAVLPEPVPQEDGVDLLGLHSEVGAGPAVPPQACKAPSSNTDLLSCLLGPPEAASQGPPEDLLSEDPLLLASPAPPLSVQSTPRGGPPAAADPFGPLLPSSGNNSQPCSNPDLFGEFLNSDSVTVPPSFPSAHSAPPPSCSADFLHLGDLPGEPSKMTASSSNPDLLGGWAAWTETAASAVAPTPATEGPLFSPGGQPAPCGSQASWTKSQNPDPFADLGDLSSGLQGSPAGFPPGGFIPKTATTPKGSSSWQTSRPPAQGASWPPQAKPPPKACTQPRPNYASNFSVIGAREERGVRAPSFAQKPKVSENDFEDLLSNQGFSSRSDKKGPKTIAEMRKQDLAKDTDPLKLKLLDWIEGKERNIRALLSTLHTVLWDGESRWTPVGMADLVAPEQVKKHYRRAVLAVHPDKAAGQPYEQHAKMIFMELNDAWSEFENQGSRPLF

Human alphaherpesvirus 1 = assay: Antiviral activity against HSV-1 infected in African green monkey Vero cells assessed as inhibition of viral replication; format: functional, organism-based; settings: Human alphaherpesvirus 1, Vero
dengue virus type 1 = assay: Antiviral activity against DENV 1 infected in hamster BHK-21 cells assessed as focus formation measured after 5 days; format: functional, organism-based; settings: BHK-21, 120 h
dengue virus type 4 = assay: Antiviral activity against DENV 4 infected in african green monkey Vero cells assessed as focus formation measured after 6 days; format: functional, organism-based; settings: 144 h
dengue virus type 2 = assay: Antiviral activity against DENV 2 infected in african green monkey Vero cells assessed as focus formation measured after 6 days; format: functional, organism-based; settings: 144 h
dengue virus type 3 = assay: Antiviral activity against DENV 3 infected in african green monkey Vero cells assessed as focus formation measured after 6 days; format: functional, organism-based; settings: 144 h
[5] = molecular target: Tyrosine-protein kinase ABL1 (Homo sapiens, UniProt P00519)
[6] = molecular target: 1-phosphatidylinositol 3-phosphate 5-kinase (Homo sapiens, UniProt Q9Y2I7); assay: Inhibition of PIKFYVE (unknown origin)
[7] = Cytotoxicity against human […] cells; format: toxicity, cell-based; settings: U2OS cells
[8] = Cytotoxicity against african green monkey Vero cells; format: toxicity, cell-based; settings: chlorocebus sabaeus
SARS-CoV-2 = assay: Antiviral activity against SARS-CoV-2 infected in african green monkey Vero cells incubated for 72 hrs by celltitre-glo luminescent assay; format: functional, organism-based; settings: Severe acute respiratory syndrome coronavirus 2, Vero
[9] = test system: Human immunodeficiency virus 1; assay: Antiviral activity against HIV-1 in U87/CD4/CCR5 cells expressing HIV-1-envelope-protein assessed as decreased cell-cell fusion at 300 nM; format: functional; design: scale not given: the % may be the effect or the level left
[10] = Binding affinity to AMPK (unknown origin); design: species or system Homo sapiens
SARS-CoV = assay: microbe, parasite or virus in culture; settings: Severe acute respiratory syndrome-related coronavirus, Vero C1008, 50 h
Influenza B virus [11] = assay: Antiviral activity against Influenza B virus B/Lee/40; format: functional, organism-based
Influenza A virus [12] = assay: Antiviral activity against Influenza A virus (A/PR/8/34 (H1N1)); format: functional, organism-based
Influenza A virus [13] = assay: Antiviral activity against Influenza A virus (A/Udorn/72 (H3N2)); format: functional, organism-based
Influenza A virus [14] = assay: Antiviral activity against Influenza A virus (A/WSN/33 (H1N1)); format: functional, organism-based
Influenza A virus [15] = assay: Antiviral activity against Influenza A virus A/Equine/2/MIAMI/1/63 (H3N8)); format: functional, organism-based
Influenza B virus [16] = assay: Antiviral activity against Influenza B virus B/MD/59; format: functional, organism-based
Parainfluenza virus 5 = assay: Antiviral activity against PIV5; format: functional, organism-based
[17] = test system: Middle East respiratory syndrome-related coronavirus; assay: microbe, parasite or virus in culture; settings: Vero
[18] = test system: Middle East respiratory syndrome-related coronavirus; assay: Antiviral activity against MERS-CoV infected in human HUh-7 cells at 0.1 to 10 uM; format: functional; settings: dose 0.1-10 µM
[19] = Inhibition of PDGFR (unknown origin); design: species or system Homo sapiens
[20] = molecular target: High affinity nerve growth factor receptor (Homo sapiens, UniProt P04629); assay: Inhibition of TrKA (unknown origin)
High affinity nerve growth factor receptor, sequence (P04629 whole entry): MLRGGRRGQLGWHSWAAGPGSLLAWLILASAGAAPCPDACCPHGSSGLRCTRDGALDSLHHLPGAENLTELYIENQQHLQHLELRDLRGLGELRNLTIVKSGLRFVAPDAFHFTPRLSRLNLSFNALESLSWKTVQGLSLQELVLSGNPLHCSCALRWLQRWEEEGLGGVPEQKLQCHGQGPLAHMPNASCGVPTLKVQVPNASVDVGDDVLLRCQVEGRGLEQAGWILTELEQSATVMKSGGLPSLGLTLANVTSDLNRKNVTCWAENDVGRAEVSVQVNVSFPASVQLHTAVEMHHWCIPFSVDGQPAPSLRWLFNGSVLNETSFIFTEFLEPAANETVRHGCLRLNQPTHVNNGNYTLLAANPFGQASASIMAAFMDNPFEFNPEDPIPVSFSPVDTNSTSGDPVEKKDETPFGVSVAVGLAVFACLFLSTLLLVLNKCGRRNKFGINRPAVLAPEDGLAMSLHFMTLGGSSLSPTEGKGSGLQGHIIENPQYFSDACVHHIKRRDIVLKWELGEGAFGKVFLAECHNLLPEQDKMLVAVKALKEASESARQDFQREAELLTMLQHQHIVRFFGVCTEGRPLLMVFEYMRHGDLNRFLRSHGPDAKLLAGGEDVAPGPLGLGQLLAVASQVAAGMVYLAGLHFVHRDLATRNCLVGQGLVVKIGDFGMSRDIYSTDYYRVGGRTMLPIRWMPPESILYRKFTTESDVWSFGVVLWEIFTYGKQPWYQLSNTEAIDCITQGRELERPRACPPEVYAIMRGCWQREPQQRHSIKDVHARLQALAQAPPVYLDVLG

[21] = molecular target: Dual specificity mitogen-activated protein kinase kinase 1 (Homo sapiens, UniProt Q02750)
Dual specificity mitogen-activated protein kinase kinase 1, sequence (Q02750 whole entry): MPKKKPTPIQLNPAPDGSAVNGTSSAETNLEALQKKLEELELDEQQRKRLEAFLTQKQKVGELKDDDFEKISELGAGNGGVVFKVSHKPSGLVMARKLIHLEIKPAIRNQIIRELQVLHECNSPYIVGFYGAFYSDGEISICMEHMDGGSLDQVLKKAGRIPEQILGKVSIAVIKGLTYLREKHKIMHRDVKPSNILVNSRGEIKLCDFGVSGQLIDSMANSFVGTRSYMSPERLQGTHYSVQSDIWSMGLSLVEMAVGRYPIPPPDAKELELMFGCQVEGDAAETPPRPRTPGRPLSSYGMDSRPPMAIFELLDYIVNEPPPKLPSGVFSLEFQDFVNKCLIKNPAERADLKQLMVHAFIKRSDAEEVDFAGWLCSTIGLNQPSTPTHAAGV

[22] = Inhibition of MEK (unknown origin); design: species or system Homo sapiens

BMP-2-inducible protein kinase, sequence (Q9NSY1 whole entry): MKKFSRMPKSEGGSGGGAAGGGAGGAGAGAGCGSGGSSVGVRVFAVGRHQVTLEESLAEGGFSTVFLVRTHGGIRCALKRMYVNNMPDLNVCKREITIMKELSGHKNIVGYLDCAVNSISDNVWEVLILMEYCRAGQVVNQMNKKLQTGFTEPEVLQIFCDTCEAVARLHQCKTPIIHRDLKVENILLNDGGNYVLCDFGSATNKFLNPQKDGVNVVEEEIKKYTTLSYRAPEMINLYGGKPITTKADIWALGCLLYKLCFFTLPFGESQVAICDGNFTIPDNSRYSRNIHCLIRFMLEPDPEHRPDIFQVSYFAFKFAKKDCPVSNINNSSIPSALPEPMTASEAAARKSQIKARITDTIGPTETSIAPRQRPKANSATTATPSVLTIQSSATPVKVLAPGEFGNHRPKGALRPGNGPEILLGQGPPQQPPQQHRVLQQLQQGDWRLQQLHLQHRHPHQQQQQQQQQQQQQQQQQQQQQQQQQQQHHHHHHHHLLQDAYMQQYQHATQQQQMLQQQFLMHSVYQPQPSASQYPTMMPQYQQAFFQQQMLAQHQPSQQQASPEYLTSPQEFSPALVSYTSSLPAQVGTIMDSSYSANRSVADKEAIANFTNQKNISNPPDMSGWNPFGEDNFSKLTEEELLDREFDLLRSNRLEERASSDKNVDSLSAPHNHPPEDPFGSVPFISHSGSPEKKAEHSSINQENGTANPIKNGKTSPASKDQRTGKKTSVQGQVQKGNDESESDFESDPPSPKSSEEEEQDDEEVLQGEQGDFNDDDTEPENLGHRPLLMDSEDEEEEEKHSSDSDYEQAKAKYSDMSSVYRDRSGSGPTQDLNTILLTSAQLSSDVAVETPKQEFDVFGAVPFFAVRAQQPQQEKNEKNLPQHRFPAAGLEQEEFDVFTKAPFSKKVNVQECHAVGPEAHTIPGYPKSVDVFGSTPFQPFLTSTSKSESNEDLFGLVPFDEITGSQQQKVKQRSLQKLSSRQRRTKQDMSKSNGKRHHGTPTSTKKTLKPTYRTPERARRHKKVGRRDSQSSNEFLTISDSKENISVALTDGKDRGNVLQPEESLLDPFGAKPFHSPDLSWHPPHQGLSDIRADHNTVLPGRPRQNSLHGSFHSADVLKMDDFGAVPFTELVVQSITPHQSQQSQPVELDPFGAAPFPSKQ

With `COc1cc(O)c2c(c1)/C=C/C[C@H](O)[C@H](O)C(=O)/C=C\C[C@H](C)OC2=O` the Kd [1] was 3.8 nM.
`CC(=O)Nc1ccc(C(C)C(=O)Nc2ncc(C(C)C)s2)cc1` (configuration not stated) showed an IC50 [2] of 31 nM and an IC50 (Zika virus) of 1720 nM.
Compound `COc1ccc(-c2cnc3[nH]cc(C#Cc4cccnc4)c3c2)cc1OC` has a Kd [3] of 4 nM.
In the case of `CC(C)C(=O)Nc1n[nH]c2cc(-c3cccc(NS(=O)(=O)C4CC4)c3)ccc12`, the Kd [3] is reported as 18000 nM.
In the case of `COc1cc(N(C)c2ccnc3ccc(C(F)(F)F)cc23)cc(OC)c1OC`, the Kd [4] is reported as 2500 nM.
`Fc1ccc(N2CCCCC2)c(NC(=S)c2ccncc2)c1` gave an EC50 (Human alphaherpesvirus 1) of 690 nM.
In the case of `CC(=O)c1cccc(-c2cc(Nc3ccc(OC(F)(F)F)cc3)ncn2)c1`, the IC50 (dengue virus type 1) is reported as 5 µM, the IC50 (dengue virus type 4) is reported as 5 µM and the IC50 (dengue virus type 2) is reported as 5 µM. It also gave an IC50 (dengue virus type 3) of 5 µM and an IC50 [5] of 138 nM.
`COc1ccccc1-c1cnc2ccc(N3CC[C@H](N(C)C(=O)C(C)C)C3)nn12` showed a Kd [3] of 1 nM.
For `Ic1cccc(/C=N/Nc2nc(N3CCOCC3)nc(N(c3ccccc3)c3ccccc3)n2)c1`, the IC50 [6] was 9 nM.
`COc1ccccc1-c1cnc2ccc(N3CC[C@H](N(C)C(=O)C(C)(C)C)C3)nn12` gave a Kd [3] of 1 nM.
`C1=Nc2ccccc2/C1=C/NNc1nc(Nc2ccccc2)nc(N2CCOCC2)n1` gave an IC50 [7] of 14 nM.
`CCN1CCN(Cc2ccc(Nc3ncc(F)c(-c4cc(F)c5nc(C)n(C(C)C)c5c4)n3)nc2)CC1` [ABEMACICLIB] showed a CC50 [8] greater than 50 µM and an IC50 (SARS-CoV-2) of 6.6 mM.
Compound `Cc1nc(Nc2ncc(C(=O)Nc3c(C)cccc3Cl)s2)cc(N2CCN(CCO)CC2)n1.O` [DASATINIB] has an Activity [9] of 93%.
`c1cc(-c2cnn3cc(-c4ccc(OCCN5CCCCC5)cc4)cnc23)ccn1` [DORSOMORPHIN] gave an IC50 [10] of 109 nM.
With `Cc1ccc(NC(=O)c2ccc(CN3CCN(C)CC3)cc2)cc1Nc1nccc(-c2cccnc2)n1` [IMATINIB] the EC50 (SARS-CoV) was 2100 nM.
For `Cc1cn(-c2cc(NC(=O)c3ccc(C)c(Nc4nccc(-c5cccnc5)n4)c3)cc(C(F)(F)F)c2)cn1` [NILOTINIB], the EC50 (SARS-CoV) was 2100 nM.
Compound `COc1ccc(Cc2nccc3cc(OC)c(OC)cc23)cc1OC` [PAPAVERINE] has an IC50 (Influenza B virus [11]) of 2000 nM, an IC50 (Influenza A virus [12]) of 2000 nM and an IC50 (Influenza A virus [13]) of 2000 nM. The IC50 (Influenza A virus [14]) was 2000 nM, the IC50 (Influenza A virus [15]) was 2000 nM and the IC50 (Influenza B virus [16]) was 2000 nM. For the same compound, the IC50 (Parainfluenza virus 5) was 2000 nM.
Compound `CN1CCN(CCOc2cc(OC3CCOCC3)c3c(Nc4c(Cl)ccc5c4OCO5)ncnc3c2)CC1` [SARACATINIB] has an EC50 [17] of 2900 nM.
Compound `Cn1cnc2c(F)c(Nc3ccc(Br)cc3Cl)c(C(=O)NOCCO)cc21` [SELUMETINIB] has an Activity [18] greater than 95%.
Compound `CNC(=O)c1cc(Oc2ccc(NC(=O)Nc3ccc(Cl)c(C(F)(F)F)c3)cc2)ccn1` [SORAFENIB] has an IC50 [19] of 20 nM.
In the case of `CC(=O)Nc1cccc(-n2c(=O)n(C3CC3)c(=O)c3c(Nc4ccc(I)cc4F)n(C)c(=O)c(C)c32)c1` [TRAMETINIB], the Activity [18] is reported as greater than 95%.
For `CC(C)(C)c1cc(C=C(C#N)C#N)cc(C(C)(C)C)c1O` [TYRPHOSTIN A9], the IC50 [19] was 500 nM.
`CC(C)(C)c1cc(/C=C(\C#N)C(N)=S)cc(C(C)(C)C)c1O` [TYRPHOSTIN AG 879] showed an IC50 [20] of 10 µM.
In the case of `O=C(O)c1ccc(F)c(F)c1Nc1ccc(I)cc1Cl` [ZAPNOMETINIB], the IC50 [21] is reported as 5.73 nM and the IC50 [22] is reported as 5.73 nM.

From ChEMBL document CHEMBL5131376, “Kinase Inhibitors as Underexplored Antiviral Agents” (J Med Chem, 2022)
